# Experimental data: US6160004A, “C-10 carbon-substituted artemisinin-like trioxane compounds having antimalarial, antiproliferative and antitumor activities” (priority 1998, dated 2000)
# Read-outs that look alike come from different tables or passages of the source.
# Legend:
# [1] = system: CCRF-CEM; assay: cells; assay type: cell-based; settings: Homo sapiens, 48 h; for CC50: read-out: Log10 LC50 (converted)
# [2] = system: K-562; assay: cells; assay type: cell-based; settings: Homo sapiens; for CC50: read-out: Log10 LC50 (converted)
# [3] = system: RPMI-8226; assay: NCI 60 cell line panel screening assay (SRB), RPMI-8226; assay type: cell-based; settings: Homo sapiens
# [4] = system: COLO 205; assay: NCI 60 cell line panel screening assay (SRB), COLO 205; assay type: cell-based; settings: Homo sapiens, COLO 205, 48 h, read-out: Log10 GI50 (converted)
# [5] = system: HCT-116; assay: cells; assay type: cell-based; settings: Homo sapiens, HCT-116, 48 h
# [6] = system: HT29; assay: cells; assay type: cell-based; settings: Homo sapiens
# [7] = system: KM12; assay: cells; assay type: cell-based; settings: Homo sapiens; for GI50: read-out: Log10 GI50 (converted)
# [8] = system: SW-620; assay: NCI 60 cell line panel screening assay (SRB), SW-620; assay type: cell-based; settings: Homo sapiens
# [9] = system: SF-268; assay: cells; assay type: cell-based; settings: Homo sapiens; for CC50: read-out: Log10 LC50 (converted)
# [10] = system: SNB-75; assay: cells; assay type: cell-based; settings: Homo sapiens; for CC50: read-out: Log10 LC50 (converted)
# [11] = system: U251; assay: cells; assay type: cell-based; settings: Homo sapiens, U-251, 48 h, read-out: Log10 GI50 (converted)
# [12] = system: SK-MEL-28; assay: cells; assay type: cell-based; settings: Homo sapiens; for CC50: read-out: Log10 LC50 (converted); for IC (TGI): read-out: Log10 TGI
# [13] = system: UACC-257; assay: cells; assay type: cell-based
# [14] = system: 786-0; assay: cells; assay type: cell-based; settings: Homo sapiens, 786-0, 48 h, read-out: Log10 GI50 (converted)
# [15] = system: TK-10; assay: cells; assay type: cell-based; settings: Homo sapiens; for CC50: read-out: Log10 LC50 (converted)
# [16] = system: DU-145; assay: cells; assay type: cell-based
# [17] = system: MOLT-4; settings: MOLT-4, FIG. 6
# [18] = system: MOLT-4; assay: cells; settings: Homo sapiens; for IC50: MOLT-4, read-out: concentration for primary growth inhibition (PG +50)
# [19] = system: NCI-H322M; assay: cells; settings: Homo sapiens, 48 h; for CC50: read-out: Log10 LC50 (converted)
# [20] = system: 60 cell line panel; assay: NCI 60 cell line panel, whole panel; settings: panel
# [21] = system: HOP-62; assay: cells; assay type: cell-based; settings: Homo sapiens; HOP-62, non-small cell lung cancer, 48 h; read-out: Log10 TGI (converted)
# [22] = system: HOP-92; assay: cells; assay type: cell-based; settings: Homo sapiens
# [23] = system: NCI-H226; assay: cells; assay type: cell-based; settings: Homo sapiens
# [24] = system: NCI-H23; assay: cells; assay type: cell-based; settings: Homo sapiens; NCI-H23, non-small cell lung cancer, 48 h; read-out: Log10 LC50 (converted)
# [25] = system: UACC-62; assay: cells; assay type: cell-based; settings: Homo sapiens, UACC-62, melanoma, 48 h
# [26] = system: OVCAR-5; assay: cells; assay type: cell-based; settings: Homo sapiens
# [27] = system: OVCAR-8; assay: cells; assay type: cell-based; settings: Homo sapiens, OVCAR-8, 48 h, read-out: Log10 LC50 (converted)
# [28] = system: A498; assay: cells; assay type: cell-based; settings: Homo sapiens
# [29] = system: RXF 393; assay: cells; assay type: cell-based; settings: Homo sapiens
# [30] = system: SN12C; assay: NCI 60 cell line panel screening assay (SRB), SN12C; assay type: cell-based; settings: Homo sapiens, 48 h
# [31] = read-out: Log10 GI50 (converted)
# [32] = MOLT-4, 48 h, read-out: Log10 LC50 (converted)
# [33] = MOLT-4, read-out: concentration for cytotoxicity (PG -50)
structure (smiles),measurement,setting,value
CC1CCC2C(C)C(CC(=O)c3ccc(C(=O)CC4OC5OC6(C)CCC7C(C)CCC(C4C)C57OO6)cc3)OC3OC4(C)CCC1C32OO4 (centres unmarked) [Dimer 38],GI50,[1]; [31],< 0.01 µM
same,CC50,[1],> 100 µM
same,GI50,"[2]; K562, 48 h, read-out: Log10 GI50 (converted)",< 0.01 µM
same,CC50,"[2]; K562, 48 h",> 100 µM
same,CC50,"[3]; RPMI-8226, 48 h, read-out: Log10 LC50 (converted)",> 100 µM
same,GI50,"[3]; RPMI-8226, leukemia, 48 h, read-out: Log10 GI50 (converted)",< 0.01 µM
same,IC (TGI),"[3]; RPMI-8226, leukemia, 48 h, read-out: Log10 TGI",< 0.01 µM
same,GI50,[4],< 0.01 µM
same,GI50,[5]; [31],< 0.01 µM
same,GI50,"[6]; HT-29, 48 h, read-out: Log10 GI50 (converted)",< 0.01 µM
same,GI50,"[7]; KM12, 48 h",< 0.01 µM
same,GI50,"[8]; SW-620, 48 h, read-out: Log10 GI50 (converted)",< 0.01 µM
same,CC50,"[8]; SW-620, colon cancer, 48 h, read-out: Log10 LC50 (converted)",> 100 µM
same,CC50,"[9]; SF-268, CNS cancer, 48 h",> 100 µM
same,GI50,"[10]; SNB-75, CNS cancer, 48 h, read-out: Log10 GI50 (converted)",0.117 µM
same,CC50,"[10]; SNB-75, CNS cancer, 48 h",> 100 µM
same,GI50,[11],< 0.01 µM
same,CC50,"[12]; SK-MEL-28, melanoma, 48 h",> 100 µM
same,IC (TGI),"[12]; SK-MEL-28, melanoma, 48 h",> 100 µM
same,GI50,"[13]; Homo sapiens, UACC-257, 48 h, read-out: Log10 GI50 (converted)",0.0209 µM
same,CC50,"[13]; Homo sapiens, UACC-257, 48 h; read-out: Log10 LC50 (converted)",> 100 µM
same,GI50,[14],0.0151 µM
same,CC50,"[15]; TK-10, renal cancer, 48 h",> 100 µM
same,IC (TGI),"[15]; TK-10, renal cancer, 48 h, read-out: Log10 TGI",> 100 µM
same,CC50,"[16]; Homo sapiens, DU-145, 48 h; read-out: Log10 LC50 (converted)",> 100 µM
same,concentration for cytostasis (PG 0),[17],approximately 10^-4 M
same,GI50,"[18]; MOLT-4, 48 h, read-out: Log10 GI50 (converted)",< 0.01 µM
same,CC50,[18]; [32],> 100 µM
same,CC50,[18]; [33],> 100 µM
same,IC50,[18],< 0.1 µM
same,GI50,[19]; [31],3.8 µM
same,CC50,[19],> 100 µM
same,IC (TGI),[19]; read-out: Log10 TGI,> 100 µM
same,Delta of Log10 TGI,[20],3.17
"C[C@H]1[C@@H](F)O[C@@H]2O[C@@]3(C)CC[C@H]4[C@H](C)CC[C@@H]1[C@@]24OO3 [Compound VI, 10β-Fluoro-10-deoxoartemisinin]",CC50,[1]; leukemia,> 100 µM
same,CC50,"[2]; K562, K-562, leukemia, 48 h",> 100 µM
same,IC (TGI),[21],61.7 µM
same,CC50,"[22]; HOP-92, 48 h, read-out: Log10 LC50 (converted)",> 100 µM
same,IC (TGI),"[22]; HOP-92, non-small cell lung cancer, 48 h, read-out: Log10 TGI (converted)",21.4 µM
same,CC50,"[23]; NCI-H226, 48 h, read-out: Log10 LC50 (converted)",> 100 µM
same,IC (TGI),"[23]; NCI-H226, non-small cell lung cancer, 48 h, read-out: Log10 TGI",> 100 µM
same,CC50,[24],> 100 µM
same,IC (TGI),[5]; read-out: Log10 TGI (converted),> 100 µM
same,CC50,"[6]; HT-29, 48 h, read-out: Log10 LC50 (converted)",> 100 µM
same,IC (TGI),"[6]; HT-29, printed H129, colon cancer, 48 h, read-out: Log10 TGI",> 100 µM
same,CC50,"[7]; KM12, 48 h, read-out: Log10 LC50 (converted)",> 100 µM
same,GI50,"[7]; KM12, colon cancer, 48 h",0.437 µM
same,CC50,"[9]; SF-268, 48 h",> 100 µM
same,IC (TGI),"[9]; SF-268, CNS cancer, 48 h, read-out: Log10 TGI",> 100 µM
same,CC50,"[10]; SNB-75, 48 h",> 100 µM
same,IC (TGI),"[10]; SNB-75, CNS cancer, 48 h, read-out: Log10 TGI",> 100 µM
same,CC50,"[12]; SK-MEL-28, 48 h",> 100 µM
same,IC (TGI),"[12]; SK-MEL-28, melanoma, 48 h",> 100 µM
same,CC50,"[13]; Homo sapiens, UACC-257, 48 h, read-out: Log10 LC50 (converted)",> 100 µM
same,IC (TGI),"[13]; Homo sapiens, UACC-257, 48 h; read-out: Log10 TGI (converted)",> 100 µM
same,GI50,[25]; [31],2.34 µM
same,IC (TGI),[25]; read-out: Log10 TGI,> 100 µM
same,CC50,"[26]; OVCAR-5, 48 h, read-out: Log10 LC50 (converted)",> 100 µM
same,GI50,"[26]; OVCAR-5, ovarian cancer, 48 h, read-out: Log10 GI50 (converted)",17 µM
same,IC (TGI),"[26]; OVCAR-5, ovarian cancer, 48 h, read-out: Log10 TGI (converted)",> 100 µM
same,CC50,[27],> 100 µM
same,CC50,"[28]; A498, 48 h, read-out: Log10 LC50 (converted)",> 100 µM
same,IC (TGI),"[28]; A498, renal cancer, 48 h, read-out: Log10 TGI",> 100 µM
same,CC50,"[29]; RXF 393, 48 h, read-out: Log10 LC50 (converted)",> 100 µM
same,IC (TGI),"[29]; RXF 393, renal cancer, 48 h, read-out: Log10 TGI",> 100 µM
same,CC50,[30]; read-out: Log10 LC50 (converted),> 100 µM
same,IC (TGI),"[30]; renal cancer, read-out: Log10 TGI",> 100 µM
same,CC50,"[15]; TK-10, 48 h",> 100 µM
same,CC50,"[16]; Homo sapiens, DU-145, 48 h, read-out: Log10 LC50 (converted)",> 100 µM
same,GI50,"[16]; Homo sapiens, DU-145, 48 h; read-out: Log10 GI50 (converted)",19.5 µM
same,IC (TGI),"[16]; Homo sapiens, DU-145, 48 h; read-out: Log10 TGI",> 100 µM
same,CC50,[18]; [32],> 100 µM
same,CC50,[18]; [33],> 100 µM
same,IC50,[18],~0.1 µM
same,CC50,[19],> 100 µM
same,Delta of Log10 TGI,[20],1.18
same,Range of Log10 TGI,[20],1.56
